Measurements reported in patent US20140335132A1, “BINDING DRUGS WITH NANOCRYSTALLINE CELLULOSE (NCC)” (priority 2010, published 2014).
Where a name gives a salt, the structure may show the parent alone.

What was measured:
[1] = Binding of hydrophilic drugs to NCC; type: physicochemical; details: for final mass of drug bound to NCC for the release studies: 2.5 mg NCC, distilled water then 10 mM NaCl, DOX solution 325 μg/ml, TET solution 1000 μg/ml; for binding efficiency / maximum mass of drug bound to NCC: 2 mg NCC
Experimental: NCC Drug Binding Procedure: Doxorubicin hydrochloride (DOX) or tetracycline hydrochloride (TET), were dissolved in either 10 mM phosphate buffered saline (PBS) at pH 7.4, or dH2O with increasing drug concentrations ([drugadded]). Drug solutions (1.5 ml) were added to 0.5 ml of NCC suspension in a 2 ml microcentrifuge tube and incubated at 37° C. with tumbling shaking at 8 rpm for 30 minutes. Suspensions containing PBS or NaCl produced flocculated NCC/drug suspensions, which were centrifuged at 18000×g for 10 minutes to pellet the NCC and bound drug. The concentration of unbound drug in the supernatant ([drugunbound]) was assayed using a Varian 50 Bio UV Vis spectrophotometer (Varian, Inc., Mississauga, Ont.) using wavelengths of 482 nm and 364 nm for DOX and TET, respectively. The concentration of drug bound to the NCC ([drugbound]) was calculated using the following equation:
[drugbound]=[drugadded]−[drugunbound] (1)
In this case, the NCC/drug suspensions were transferred to dialysis bags with a molecular weight cut off of 10000 Da (Spectrum Laboratories, Inc., Rancho Dominguez, Calif.) and dialysed against distilled water overnight in the dark at 4° C. The concentration of unbound drug in the dialysate was determined by UV Vis spectroscopy, allowing for the calculation of the amount of drug bound to the NCC according to equation (1).

[2] = In vitro release of drugs from NCC in PBS; type: physicochemical; details: 10 mM PBS, 37° C.
Experimental: (§1) Drug Release Procedure: DOX was bound to NCC for release studies by incubating a solution of 325 μg/ml of DOX in distilled water with a suspension containing 2.5 mg of NCC. In order to flocculate the NCC and allow for separation of the NCC/DOX nanocomplexes, NaCl was added to a final concentration of 10 mM. The suspension was centrifuged at 18000×g for 10 minutes to pellet the NCC/DOX and the drug binding was determined by UV Vis spectroscopy as described above. […] NCC/drug nanocomplexes with DTX, PTX and ETOP were prepared as described for the drug binding studies. The concentration of DTX and PTX that was incubated with the NCC suspension was 200 μg/ml and the concentration of ETOP was 100 μg/ml. […] The drug loaded NCC samples were resuspended in 1 ml of PBS followed by incubation at 37° C. with tumbling at 8 rpm. At predetermined times the suspensions were centrifuged at 18000×g for 10 minutes and the supernatant was removed for drug quantitation by UV Vis for DOX and TET or HPLC for DTX, PTX and ETOP, as previously described. At each sampling time point, fresh PBS was added to the tubes and the NCC/drug nanocomplexes were resuspended.

[3] = Binding of hydrophobic drugs to NCC/CTAB nanocomplexes; type: physicochemical; details: for saturation of binding / binding efficiency to NCC/CTAB nanocomplexes: 12.9 mM CTAB, 2.5 mg NCC, 10 mM NaCl; for binding efficiency to NCC/CTAB nanocomplexes: 25° C., up to 100 μg of drug added; for final mass of drug bound to NCC/CTAB for the release studies: DTX and PTX incubated at 200 μg/ml, ETOP at 100 μg/ml
Experimental: In order to solubilize the hydrophobic drugs paclitaxel (PTX), docetaxel (DTX) and etoposide (ETOP), the surface of the NCC was first modified with CTAB. This was achieved by incubating increasing amounts of CTAB with 2.5 mg of NCC so the final CTAB concentration varied from 0 mM to 12.9 mM. An aliquot of 100 mM NaCl was added, resulting in a final NaCl concentration of 10 mM, which facilitated flocculation and subsequent separation of the NCC/CTAB nanocomplexes by centrifugation as described above. The NCC/CTAB was incubated with stock solutions of the drugs with increasing concentrations. Since these drugs are characterized by low aqueous solubility, they were solubilized in a minimal amount of either DMSO or diblock copolymer in 10 mM NaCl as previously described. The drug/NCC/CTAB suspensions were incubated at 25° C. with tumbling at 8 rpm for 30 minutes then centrifuged at 18000×g for 10 minutes to pellet the NCC/CTAB and bound drug. The amount of unbound drug in the supernatant was determined by HPLC using a Waters HPLC system with Millennium software and UV Vis detection. Separation was achieved using a Novapak™ C18 column with 20 μl injections and a mobile phase flow rate of 1 ml/min. The DTX and PTX mobile phase consisted of 58% acetonitrile, 37% dH2O and 5% methanol with detection at 232 nm. The mobile phase for ETOP was 27% acetonitrile, 1% acetic acid and 72% dH2O and detection was at 286 nm. Calibration curves were prepared for all drugs and were linear in the desired concentration range. The amount of drug bound to the NCC/CTAB was determined using equation (1).

[4] = In vitro release of drugs from NCC/CTAB nanocomplexes in PBS; type: physicochemical; details: 12.9 mM CTAB, 10 mM PBS, 37° C.
Experimental: as §1

[5] = Retention of fluorescein bound to NCC/CTAB in aqueous media; type: physicochemical; details: upon resuspension or dilution in aqueous media
[6] = test system: KU-7 cells; assay: Cell binding and uptake of NCC/CTAB/fluorescein (fluorescence, confocal microscopy); type: cell-based
Experimental: FIGS. 10A, B, C and D are confocal micrographs of KU-7 cells incubated for 2 hours with NCC/CTAB/fluoroscein system with a fluorescein concentration of 0.25 mg/ml. (A) White light image of KU-7 cells. (B) Staining of the nuclei with DAPI. (C) Fluorescein in the cytoplasm. (D) An overlay of images B and C.

[7] = dispersion medium PBS 10 mM, pH 7.4
[8] = dispersion medium distilled water

saturation of binding [3] | binding efficiency to NCC/CTAB nanocomplexes [3] | final mass of drug bound to NCC/CTAB for the release studies [3] [µg] | bound drug released within the first hour [4] | total bound drug released in two days [4] [%] | Structure (SMILES) | final mass of drug bound to NCC for the release studies [1] [µg] | binding efficiency [1, 7] [%] | maximum mass of drug bound to NCC [1, 7] [µg] | binding efficiency [1, 8] [%] | maximum mass of drug bound to NCC [1, 8] [µg] | bound drug released in four hours [2] | bound drug released by one day (plateau) [2] [%] | further results
 |  |  |  |  | COc1cccc2c1C(=O)c1c(O)c3c(c(O)c1C2=O)C[C@@](O)(C(=O)CO)C[C@@H]3O[C@H]1C[C@H](N)[C@H](O)[C@H](C)O1 [DOX, Doxorubicin hydrochloride] | 212 ± 3.5 | 65 | 122 | 83 | 1667 | ~85% | 87 | 
approximately 200 μg | approximately 90% | 184 ± 4.8 | Approximately 26% | 59 | CC(=O)O[C@@]12CO[C@@H]1C[C@H](O)[C@@]1(C)C(=O)[C@H](O)C3=C(C)[C@@H](OC(=O)[C@H](O)[C@@H](NC(=O)OC(C)(C)C)c4ccccc4)C[C@@](O)([C@@H](OC(=O)c4ccccc4)[C@H]21)C3(C)C [DTX, docetaxel] |  |  |  |  |  |  |  | 
 | 48% | 63 ± 0.1 |  |  | COc1cc([C@@H]2c3cc4c(cc3[C@@H](O[C@@H]3O[C@@H]5CO[C@@H](C)O[C@H]5[C@H](O)[C@H]3O)[C@H]3COC(=O)[C@H]23)OCO4)cc(OC)c1O [ETOP, etoposide] |  |  |  |  |  |  |  | maximum mass of drug bound to NCC/CTAB ([3]; 100 μg of drug added): 48 µg; total drug released over four days ([4]; four days): 75%
approximately 200 μg | approximately 90% | 149 ± 4.8 | 20% | 44 | CC(=O)O[C@H]1C(=O)[C@@]2(C)[C@H]([C@H](OC(=O)c3ccccc3)[C@]3(O)C[C@H](OC(=O)[C@H](O)[C@@H](NC(=O)c4ccccc4)c4ccccc4)C(C)=C1C3(C)C)[C@]1(OC(C)=O)CO[C@@H]1C[C@@H]2O [PTX, paclitaxel] |  |  |  |  |  |  |  | 
 |  |  |  |  | CN(C)[C@@H]1C(O)=C(C(N)=O)C(=O)[C@@]2(O)C(O)=C3C(=O)c4c(O)cccc4[C@@](C)(O)[C@H]3C[C@@H]12 [TET, tetracycline hydrochloride] | 187 ± 2.0 | 25 | 251 | 48 | 959 | approximately 90% | 93 | drug loading ([1]; almost 500 μg on 2 mg of NCC): 20 % w/w; mass of drug bound to NCC ([1]; bound to 2 mg of NCC (FIG. 2)): ~500 µg
 |  |  |  |  | O=C1OC2(c3ccc(O)cc3Oc3cc(O)ccc32)c2ccccc21 [fluorescein] |  |  |  |  |  |  |  | fluorescein remaining bound to NCC/CTAB [5]: More than 95%; time by which cellular uptake of fluorescein reached a maximum [6]: ≤ 2 h
